# Measurements published in ChEMBL document CHEMBL4382229, “Benzofuran derivatives and their anti-tubercular, anti-bacterial activities” (Eur J Med Chem, 2019).
# Tests used:
# [1] = target: DNA gyrase subunit A/DNA gyrase subunit B (Mycobacterium tuberculosis (strain ATCC 25618 / H37Rv), UniProt P9WG45+P9WG47); test: Inhibition of Mycobacterium tuberculosis H37Rv DNA gyrase A/B expressed in Escherichia coli assessed as reduction in supercoiling of relaxed pBR322 DNA substrate measured after 60 mins by ethidium bromide staining based agarose gel electrophoresis method
# [2] = system: Mycobacterium tuberculosis; test: Antimycobacterial activity against Mycobacterium tuberculosis H37Rv ATCC 27294 after 5 days by microplate alamar blue assay; format: functional; conditions: H37Rv ATCC 27294, 120 h
# Escherichia coli [3] = test: Antibacterial activity against Escherichia coli assessed as zone of inhibition at 50 ug/ml after 3 days by filter paper disc method; format: functional; conditions: 72 h, read-out: IZ
# Pseudomonas aeruginosa [4] = test: Antibacterial activity against Pseudomonas aeruginosa assessed as zone of inhibition at 50 ug/ml after 3 days by filter paper disc method; format: functional; conditions: 72 h, read-out: IZ
# Pseudomonas aeruginosa [5] = test: Antibacterial activity against Pseudomonas aeruginosa by broth dilution method; format: functional
# Staphylococcus aureus [6] = test: Antibacterial activity against Staphylococcus aureus MTCC 96 assessed as zone of inhibition at 100 ug/ml by disc diffusion method; format: functional; conditions: read-out: IZ
# Streptococcus pyogenes [7] = test: Antibacterial activity against Streptococcus pyogenes MTCC 442 assessed as zone of inhibition at 100 ug/ml by disc diffusion method; format: functional; conditions: read-out: IZ
# Escherichia coli [8] = test: Antibacterial activity against Escherichia coli MTCC 443 assessed as zone of inhibition at 100 ug/ml by disc diffusion method; format: functional; conditions: read-out: IZ
# Pseudomonas aeruginosa [9] = test: Antibacterial activity against Pseudomonas aeruginosa MTCC 424 assessed as zone of inhibition at 100 ug/ml by disc diffusion method; format: functional; conditions: read-out: IZ
# Staphylococcus aureus [10] = test: Antibacterial activity against Staphylococcus aureus assessed as zone of inhibition at 50 ug/ml after 3 days by filter paper disc method; format: functional; conditions: 72 h, read-out: IZ
# Bacillus subtilis [11] = test: Antibacterial activity against Bacillus subtilis assessed as zone of inhibition at 50 ug/ml after 3 days by filter paper disc method; format: functional; conditions: 72 h, read-out: IZ
# Staphylococcus aureus [12] = test: Antibacterial activity against Staphylococcus aureus assessed as zone of inhibition at 1 mg/ml after 32 hrs by agar-well diffusion method; format: functional; conditions: read-out: IZ
# Klebsiella pneumoniae = test: Antibacterial activity against Klebsiella pneumoniae assessed as zone of inhibition at 1 mg/ml after 32 hrs by agar-well diffusion method; format: functional; conditions: read-out: IZ
# Pseudomonas aeruginosa [13] = test: Antibacterial activity against Pseudomonas aeruginosa assessed as zone of inhibition at 1 mg/ml after 32 hrs by agar-well diffusion method; format: functional; conditions: read-out: IZ
# Escherichia coli [14] = test: Antibacterial activity against Escherichia coli assessed as zone of inhibition at 1 mg/ml after 32 hrs by agar-well diffusion method; format: functional; conditions: read-out: IZ
# Staphylococcus aureus [15] = test: Antibacterial activity against Staphylococcus aureus ATCC 25923 after 24 hrs; format: functional; conditions: ATCC 25923, 24 h
# Bacillus spizizenii [16] = test: Antibacterial activity against Bacillus subtilis ATCC 6633 after 24 hrs; format: functional; conditions: ATCC 6633, 24 h
# Escherichia coli [17] = test: Antibacterial activity against Escherichia coli ATCC 25922 after 24 hrs; format: functional; conditions: ATCC 25922, 24 h
# Proteus vulgaris [18] = test: Antibacterial activity against Proteus vulgaris after 24 hrs; format: functional
# Bacillus subtilis [19] = test: Antibacterial activity against Bacillus subtilis MTCC 1134 after 24 hrs by broth dilution method; format: functional; conditions: MTCC 1134, 24 h
# Escherichia coli [20] = test: Antibacterial activity against Escherichia coli MTCC 1559 after 24 hrs by broth dilution method; format: functional; conditions: MTCC 1559, 24 h
# Pseudomonas aeruginosa [21] = test: Antibacterial activity against Pseudomonas aeruginosa MTCC 1034 after 24 hrs by broth dilution method; format: functional; conditions: MTCC 1034, 24 h
# Staphylococcus aureus [22] = test: Antibacterial activity against Staphylococcus aureus MTCC 96 assessed as zone of inhibition at 25 ug/ml by agar well diffusion method; format: functional; conditions: read-out: IZ
# Streptococcus pyogenes [23] = test: Antibacterial activity against Streptococcus pyogenes MTCC 442 assessed as zone of inhibition at 25 ug/ml by agar well diffusion method; format: functional; conditions: read-out: IZ
# Escherichia coli [24] = test: Antibacterial activity against Escherichia coli MTCC 443 assessed as zone of inhibition at 25 ug/ml by agar well diffusion method; format: functional; conditions: read-out: IZ
# Pseudomonas aeruginosa [25] = test: Antibacterial activity against Pseudomonas aeruginosa MTCC 424 assessed as zone of inhibition at 25 ug/ml by agar well diffusion method; format: functional; conditions: read-out: IZ
# Bacillus spizizenii [26] = test: Antibacterial activity against Bacillus subtilis ATCC 6633 after 24 hrs by broth dilution method; format: functional; conditions: ATCC 6633, 24 h
# Staphylococcus aureus [27] = test: Antibacterial activity against Staphylococcus aureus ATCC 29213 after 24 hrs by broth dilution method; format: functional; conditions: ATCC 29213, 24 h
# Escherichia coli [28] = test: Antibacterial activity against Escherichia coli ATCC 11229 after 24 hrs by broth dilution method; format: functional; conditions: ATCC 11229, 24 h
# Proteus vulgaris [29] = test: Antibacterial activity against Proteus vulgaris […] after 24 hrs by broth dilution method; format: functional
# [30] = system: Mycobacterium tuberculosis; test: Antitubercular activity against Mycobacterium tuberculosis H37Rv infected in BALB/c mouse assessed as reduction in bacterial load in lungs at 200 mg/kg, po administered once daily via gavage for 5 consecutive days per week for 2 weeks; format: functional
# [31] = system: Mycobacterium tuberculosis; test: Antitubercular activity against Mycobacterium tuberculosis Erdman infected in BALB/c mouse assessed as reduction in bacterial load in lungs at 300 mg/kg, po administered once daily via gavage starting from 27 days post infection for 5 consecutive days per week for 4 weeks; format: functional
# [32] = system: Mycobacterium tuberculosis; test: Antitubercular activity against Mycobacterium tuberculosis Erdman infected in BALB/c mouse assessed as reduction in bacterial load in spleen at 300 mg/kg, po administered once daily via gavage starting from 27 days post infection for 5 consecutive days per week for 4 weeks; format: functional
# [33] = system: Mycobacterium tuberculosis; test: microbe, parasite or virus in culture; conditions: MC2 7000, 144 h
# Staphylococcus aureus [34] = test: Antibacterial activity against Staphylococcus aureus ATCC 6538 after 24 hrs by broth dilution method; format: functional; conditions: ATCC 6538, 24 h
# Proteus vulgaris [35] = test: Potency index, ratio of norfloxacin MIC to test compound MIC for Proteus vulgaris; format: functional
compound,measurement,setting,value
Cc1ccc2c(c1)/C(=N/NC(=O)c1cc3ccccc3o1)C(=O)N2,IC50,[1],50 to 200 µM
O=C(O)c1cn(C2CC2)c2cc(N3CCNCC3)c(F)cc2c1=O [CIPROFLOXACIN],MIC,[2],3.12 µg/mL
same,zone of inhibition at 50 µg/mL,Escherichia coli [3],25 to 28 mm
same,zone of inhibition at 50 µg/mL,Pseudomonas aeruginosa [4],25 to 28 mm
same,MIC,Pseudomonas aeruginosa [5],< 4 µg/mL
same,zone of inhibition at 100 µg/mL,Staphylococcus aureus [6],21 to 28 mm
same,zone of inhibition at 100 µg/mL,Streptococcus pyogenes [7],21 to 28 mm
same,zone of inhibition at 100 µg/mL,Escherichia coli [8],21 to 28 mm
same,zone of inhibition at 100 µg/mL,Pseudomonas aeruginosa [9],21 to 28 mm
CC1(C)S[C@@H]2[C@H](NC(=O)[C@H](N)c3ccccc3)C(=O)N2[C@H]1C(=O)O [AMPICILLIN],zone of inhibition at 50 µg/mL,Staphylococcus aureus [10],10 to 30 mm
same,zone of inhibition at 50 µg/mL,Bacillus subtilis [11],10 to 30 mm
same,zone of inhibition at 50 µg/mL,Escherichia coli [3],10 to 30 mm
same,zone of inhibition at 50 µg/mL,Pseudomonas aeruginosa [4],10 to 30 mm
same,zone of inhibition at 1000 µg/mL,Staphylococcus aureus [12],20 to 28 mm
same,zone of inhibition at 1000 µg/mL,Klebsiella pneumoniae,20 to 28 mm
same,zone of inhibition at 1000 µg/mL,Pseudomonas aeruginosa [13],20 to 28 mm
same,zone of inhibition at 1000 µg/mL,Escherichia coli [14],20 to 28 mm
same,MIC,Staphylococcus aureus [15],0.48 µg/mL
same,MIC,Bacillus spizizenii [16],3.9 µg/mL
same,MIC,Escherichia coli [17],3.9 µg/mL
same,MIC,Proteus vulgaris [18],3.9 µg/mL
O=C1Nc2ccccc2/C1=N/NC(=O)c1cc2ccccc2o1,MIC,Staphylococcus aureus [15],250 to 500 µg/mL
same,MIC,Bacillus spizizenii [16],250 to 500 µg/mL
same,MIC,Escherichia coli [17],250 to 500 µg/mL
same,MIC,Proteus vulgaris [18],250 to 500 µg/mL
O=C1Nc2ccc(F)cc2/C1=N/NC(=O)c1cc2cc([N+](=O)[O-])ccc2o1,IC50,[1],50 to 200 µM
CN[C@@H]1[C@H](O[C@H]2[C@H](O[C@H]3[C@H](O)[C@@H](O)[C@H](N=C(N)N)[C@@H](O)[C@@H]3N=C(N)N)O[C@@H](C)[C@]2(O)C=O)O[C@@H](CO)[C@H](O)[C@H]1O [STREPTOMYCIN],MIC,[2],6.25 µg/mL
same,MIC,Bacillus subtilis [19],17.2 to 19.4 µg/mL
same,MIC,Escherichia coli [20],17.2 to 19.4 µg/mL
same,MIC,Pseudomonas aeruginosa [21],17.2 to 19.4 µg/mL
COc1cc(OC)c(-c2cc3cc(C(=O)/C=C/c4ccc5occc5c4)cc(OC)c3o2)c(OC)c1,zone of inhibition at 25 µg/mL,Staphylococcus aureus [22],21 to 28 mm
same,zone of inhibition at 25 µg/mL,Streptococcus pyogenes [23],21 to 28 mm
same,zone of inhibition at 25 µg/mL,Escherichia coli [24],21 to 28 mm
same,zone of inhibition at 25 µg/mL,Pseudomonas aeruginosa [25],21 to 28 mm
COc1cc(OC)c(-c2cc3cc(C(=O)NN)cc(OC)c3o2)c(OC)c1,zone of inhibition at 25 µg/mL,Staphylococcus aureus [22],21 to 27 mm
same,zone of inhibition at 25 µg/mL,Streptococcus pyogenes [23],21 to 27 mm
same,zone of inhibition at 25 µg/mL,Escherichia coli [24],21 to 27 mm
same,zone of inhibition at 25 µg/mL,Pseudomonas aeruginosa [25],21 to 27 mm
CCOc1ccc(-c2nn(-c3ccccc3)cc2/C=C/c2oc3c4c(ccc3c2C(=O)c2ccc(Br)cc2)OCC=C4)cc1,MIC,Bacillus spizizenii [26],6.3 to 25 µg/mL
same,MIC,Staphylococcus aureus [27],6.3 to 25 µg/mL
same,MIC,Escherichia coli [28],6.3 to 25 µg/mL
same,MIC,Proteus vulgaris [29],6.3 to 25 µg/mL
CNC(=O)c1c(-c2ccc(O)cc2)oc2ccc(O)c(CN3CCCCC3)c12,Activity,[30],6.8 log10CFU
same,Activity,[31],0.9 log10CFU
same,Activity,[32],2.2 log10CFU
same,MIC,[33],0.09 µM
Nc1nn2c(-c3ccc(N4CCCCC4)cc3)cc(-c3cc4ccccc4o3)nc2c1/N=N/c1ccccc1,zone of inhibition at 50 µg/mL,Escherichia coli [3],9 to 18 mm
same,zone of inhibition at 50 µg/mL,Pseudomonas aeruginosa [4],9 to 18 mm
COc1ccc(-c2nn(-c3ccccc3)cc2/C=C/c2oc3c4c(ccc3c2C(=O)c2ccc(Br)cc2)OCC=C4)cc1,MIC,Bacillus spizizenii [26],3.1 to 6.3 µg/mL
same,MIC,Staphylococcus aureus [27],3.1 to 6.3 µg/mL
same,MIC,Escherichia coli [28],3.1 to 6.3 µg/mL
same,MIC,Proteus vulgaris [29],3.1 to 6.3 µg/mL
O=C(c1ccc(Br)cc1)c1oc2ccc(Br)cc2c1/C=C/c1c[nH]c2ccccc12,MIC,Bacillus spizizenii [26],3.12 to 6.25 µg/mL
same,MIC,Escherichia coli [28],3.12 to 6.25 µg/mL
same,MIC,Proteus vulgaris [29],3.12 to 6.25 µg/mL
same,MIC,Staphylococcus aureus [34],3.12 to 6.25 µg/mL
O=C1/C(=C\c2cn(-c3ccccc3)nc2-c2cccs2)Oc2cc(Cl)ccc21,zone of inhibition at 50 µg/mL,Staphylococcus aureus [10],13 to 33 mm
same,zone of inhibition at 50 µg/mL,Bacillus subtilis [11],13 to 33 mm
same,zone of inhibition at 50 µg/mL,Escherichia coli [3],13 to 33 mm
same,zone of inhibition at 50 µg/mL,Pseudomonas aeruginosa [4],13 to 33 mm
O=C1Nc2c(O)cccc2/C1=N/NC(=O)c1cc2ccccc2o1,MIC,Proteus vulgaris [18],31.2 µg/mL
same,Ratio,Proteus vulgaris [35],2
Cc1cc(NS(C)(=O)=O)c2oc(COC(=O)NCc3ccccc3)cc2c1,zone of inhibition at 100 µg/mL,Staphylococcus aureus [6],19 to 28 mm
same,zone of inhibition at 100 µg/mL,Streptococcus pyogenes [7],19 to 28 mm
same,zone of inhibition at 100 µg/mL,Escherichia coli [8],19 to 28 mm
same,zone of inhibition at 100 µg/mL,Pseudomonas aeruginosa [9],19 to 28 mm
